From publication PMC9171722, “An Enzyme with High Catalytic Proficiency Utilizes Distal Site Substrate Binding Energy to Stabilize the Closed State but at the Expense of Substrate Inhibition” (ACS Catalysis, 2022)

Tests used:
[1] = target: T1, β-phosphoglucomutase (βPGM WT) (Lactococcus lactis, UniProt P71447); parameters: gene pgmB
[2] = target: T2, β-phosphoglucomutase (βPGM R49K) (Lactococcus lactis, UniProt P71447, R49K); test: enzyme kinetics (kcat/Km), G6PDH coupled assay; […] NMR time course; assay type: biochemical
T2 construct: gene pgmB; full length

[3] = target: T3, β-phosphoglucomutase (βPGM R49A) (Lactococcus lactis, UniProt P71447, R49A); test: as above; assay type: biochemical
T3 construct: gene pgmB; full length

[4] = target: T1, β-phosphoglucomutase (βPGM WT); test: as above; assay type: biochemical; parameters: gene pgmB; full length

SMILES | crystal structure (1.8 Å), open conformation [1] | enzyme kinetics (kcat/Km), G6PDH coupled assay; 31P NMR time course [2] [s^–1·μM^–1] | enzyme kinetics (kcat/Km), G6PDH coupled assay; 31P NMR time course [3] [s^–1·μM^–1] | enzyme kinetics (kcat/Km), G6PDH coupled assay; 31P NMR time course [4] [s^–1·μM^–1]
O=P(O)(O)O [Pi, phosphate] | a phosphate anion coordinated in the distal site by the guanidinium group of R49 |  |  | 
O=P(O)(O)O[C@@H]1O[C@H](CO)[C@@H](O)[C@H](O)[C@H]1O [βG1P, β-glucose 1-phosphate] |  | 0.05 | 0.02 | 0.29
